From US20090131354A1, “miR-126 REGULATED GENES AND PATHWAYS AS TARGETS FOR THERAPEUTIC INTERVENTION” (priority 2007, published 2009)

Tested on: A549 cells
Assay: mRNA array gene expression analysis after transfection
Format: cell-based, human

hsa-miR-126 (UCGUACCGUGAGUAAUAAUGC; synthetic pre-miR form, further chemistry not given here) [Synthetic hsa-miR-126 (Pre-miR™-hsa-miR-126, Ambion cat. no. AM17100)]
Δ log2 PRNP mRNA: −0.8862 log2
Δ log2 ABAT mRNA (A549, 30 nM): 0.7144 log2
Δ log2 ABCC1 mRNA (A549, 30 nM): −1.371 log2
Δ log2 ABHD3 mRNA (A549, 30 nM): −1.85 log2
Δ log2 ACSM3 mRNA (A549, 30 nM): 1.028 log2
Δ log2 ACTR2 mRNA (A549, 30 nM): 0.8699 log2
Δ log2 ADAM9 mRNA (A549, 30 nM): −1.175 log2
Δ log2 ADK mRNA (A549, 30 nM): −1.161 log2
Δ log2 AES mRNA (A549, 30 nM): −1.21 log2
Δ log2 AHNAK mRNA (A549, 30 nM): −1.362 log2
Δ log2 ALDH6A1 mRNA (A549, 30 nM): 0.9207 log2
Δ log2 ANG /// RNASE4 mRNA (A549, 30 nM): 0.8377 log2
Δ log2 ANKRD46 mRNA (A549, 30 nM): 1.489 log2
Δ log2 ANPEP mRNA (A549, 30 nM): 1.016 log2
Δ log2 ANTXR1 mRNA (A549, 30 nM): −1.152 log2
Δ log2 APOH mRNA (A549, 30 nM): 1.465 log2
Δ log2 APP mRNA (A549, 30 nM): 0.7951 log2
Δ log2 AQP3 mRNA (A549, 30 nM): 1.683 log2
Δ log2 ARFRP1 mRNA (A549, 30 nM): −0.7079 log2
Δ log2 ARG2 mRNA (A549, 30 nM): 0.8026 log2
Δ log2 ARHGAP11A mRNA (A549, 30 nM): −0.8591 log2
Δ log2 ARHGDIA mRNA (A549, 30 nM): −1.479 log2
Δ log2 ARID5B mRNA (A549, 30 nM): 0.8176 log2
Δ log2 ARL2BP mRNA (A549, 30 nM): 0.9301 log2
Δ log2 ARTS-1 mRNA (A549, 30 nM): 0.886 log2
Δ log2 ASNS mRNA (A549, 30 nM): −0.7092 log2
Δ log2 ATP6V0E mRNA (A549, 30 nM): 1.493 log2
Δ log2 ATP6V1D mRNA (A549, 30 nM): −1.206 log2
Δ log2 B4GALT4 mRNA (A549, 30 nM): −2.01 log2
Δ log2 B4GALT6 mRNA (A549, 30 nM): −0.8145 log2
Δ log2 BCL2A1 mRNA (A549, 30 nM): −0.8657 log2
Δ log2 BCL6 mRNA (A549, 30 nM): 1.023 log2
Δ log2 BF mRNA (A549, 30 nM): 1.375 log2
Δ log2 BHLHB2 mRNA (A549, 30 nM): −0.7321 log2
Δ log2 BTG2 mRNA (A549, 30 nM): 0.7161 log2
Δ log2 C1R mRNA (A549, 30 nM): 1.372 log2
Δ log2 C1orf121 mRNA (A549, 30 nM): −1.019 log2
Δ log2 C2orf26 mRNA (A549, 30 nM): −1.688 log2
Δ log2 C2orf33 mRNA (A549, 30 nM): −1.066 log2
Δ log2 C3 mRNA (A549, 30 nM): 1.751 log2
Δ log2 C5orf15 mRNA (A549, 30 nM): −1.099 log2
Δ log2 C6orf75 mRNA (A549, 30 nM): −1.159 log2
Δ log2 C8orf1 mRNA (A549, 30 nM): −1.201 log2
Δ log2 C8orf32 mRNA (A549, 30 nM): −1.162 log2
Δ log2 C19orf28 mRNA (A549, 30 nM): −1.583 log2
Δ log2 CA11 mRNA (A549, 30 nM): 0.8832 log2
Δ log2 CCND1 mRNA (A549, 30 nM): −0.7871 log2
Δ log2 CCNG1 mRNA (A549, 30 nM): 0.7209 log2
Δ log2 CD9 mRNA (A549, 30 nM): −1.226 log2
Δ log2 CDC37L1 mRNA (A549, 30 nM): −1.198 log2
Δ log2 CDH4 mRNA (A549, 30 nM): −1.072 log2
Δ log2 CDH17 mRNA (A549, 30 nM): 1.248 log2
Δ log2 CEACAM1 mRNA (A549, 30 nM): 1.002 log2
Δ log2 CEBPD mRNA (A549, 30 nM): 0.9196 log2
Δ log2 CFH /// CFHL1 mRNA (A549, 30 nM): 0.727 log2
Δ log2 CGI-38 mRNA (A549, 30 nM): 1.152 log2
Δ log2 CGI-48 mRNA (A549, 30 nM): 1.409 log2
Δ log2 CHGB mRNA (A549, 30 nM): 2.066 log2
Δ log2 CHST11 mRNA (A549, 30 nM): −0.8983 log2
Δ log2 CMKOR1 mRNA (A549, 30 nM): −0.9537 log2
Δ log2 COL4A1 mRNA (A549, 30 nM): −1.251 log2
Δ log2 COL4A2 mRNA (A549, 30 nM): −1.104 log2
Δ log2 COPS7A mRNA (A549, 30 nM): −0.7137 log2
Δ log2 CP mRNA (A549, 30 nM): 2.115 log2
Δ log2 CPE mRNA (A549, 30 nM): 0.8454 log2
Δ log2 CPS1 mRNA (A549, 30 nM): 0.7371 log2
Δ log2 CTDSP2 mRNA (A549, 30 nM): 1.119 log2
Δ log2 CTDSPL mRNA (A549, 30 nM): 0.7348 log2
Δ log2 CTGF mRNA (A549, 30 nM): 0.7924 log2
Δ log2 CTPS mRNA (A549, 30 nM): −1.07 log2
Δ log2 CTSS mRNA (A549, 30 nM): 0.9282 log2
Δ log2 CXCL5 mRNA (A549, 30 nM): 0.8706 log2
Δ log2 CYP3A5 mRNA (A549, 30 nM): 0.8111 log2
Δ log2 DAAM1 mRNA (A549, 30 nM): 0.7598 log2
Δ log2 DCBLD2 mRNA (A549, 30 nM): −1.329 log2
Δ log2 DCUN1D1 mRNA (A549, 30 nM): −1.329 log2
Δ log2 DDC mRNA (A549, 30 nM): 1.008 log2
Δ log2 DDX3Y mRNA (A549, 30 nM): 0.738 log2
Δ log2 DHRS2 mRNA (A549, 30 nM): 1.489 log2
Δ log2 DIO2 mRNA (A549, 30 nM): −1.213 log2
Δ log2 DIPA mRNA (A549, 30 nM): −0.8054 log2
Δ log2 DKFZP586A0522 mRNA (A549, 30 nM): 1.054 log2
Δ log2 DLG5 mRNA (A549, 30 nM): −1.467 log2
Δ log2 DNAJB9 mRNA (A549, 30 nM): 0.9599 log2
Δ log2 DPYSL3 mRNA (A549, 30 nM): −0.947 log2
Δ log2 DSU mRNA (A549, 30 nM): 0.9423 log2
Δ log2 DUSP6 mRNA (A549, 30 nM): 0.7153 log2
Δ log2 EEF1D mRNA (A549, 30 nM): 0.9871 log2
Δ log2 EFHD2 mRNA (A549, 30 nM): −1.109 log2
Δ log2 EGFR mRNA (A549, 30 nM): −1.333 log2
Δ log2 EHF mRNA (A549, 30 nM): 2.017 log2
Δ log2 EML1 mRNA (A549, 30 nM): −1.062 log2
Δ log2 ENPP4 mRNA (A549, 30 nM): 0.8064 log2
Δ log2 EPHB2 mRNA (A549, 30 nM): −0.8763 log2
Δ log2 ERBB3 mRNA (A549, 30 nM): 1.041 log2
Δ log2 EREG mRNA (A549, 30 nM): −0.7398 log2
Δ log2 F2RL1 mRNA (A549, 30 nM): −0.7846 log2
Δ log2 F5 mRNA (A549, 30 nM): 1.115 log2
Δ log2 F8A1 mRNA (A549, 30 nM): −0.8485 log2
Δ log2 FAM46A mRNA (A549, 30 nM): 0.8499 log2
Δ log2 FAS mRNA (A549, 30 nM): 0.9486 log2
Δ log2 FBXO11 mRNA (A549, 30 nM): 0.8295 log2
Δ log2 FCMD mRNA (A549, 30 nM): −0.8718 log2
Δ log2 FGB mRNA (A549, 30 nM): 1.118 log2
Δ log2 FGFR1 mRNA (A549, 30 nM): −0.7031 log2
Δ log2 FGFR4 mRNA (A549, 30 nM): 0.9059 log2
Δ log2 FGL1 mRNA (A549, 30 nM): 2.076 log2
Δ log2 FLJ11184 mRNA (A549, 30 nM): −0.9264 log2
Δ log2 FLJ13910 mRNA (A549, 30 nM): 1.05 log2
Δ log2 FLJ20364 mRNA (A549, 30 nM): −1.021 log2
Δ log2 FLJ21159 mRNA (A549, 30 nM): −1.12 log2
Δ log2 FLJ31568 mRNA (A549, 30 nM): 0.732 log2
Δ log2 FLRT3 mRNA (A549, 30 nM): 1.34 log2
Δ log2 FMO5 mRNA (A549, 30 nM): 1.277 log2
Δ log2 FOSL1 mRNA (A549, 30 nM): −0.9348 log2
Δ log2 GABRA5 mRNA (A549, 30 nM): −1.612 log2
Δ log2 GALNT4 mRNA (A549, 30 nM): 1.916 log2
Δ log2 GALNT12 mRNA (A549, 30 nM): −0.8981 log2
Δ log2 GART mRNA (A549, 30 nM): −1.022 log2
Δ log2 GATM mRNA (A549, 30 nM): 1.127 log2
Δ log2 GCH1 mRNA (A549, 30 nM): 0.9389 log2
Δ log2 GLI2 mRNA (A549, 30 nM): −0.8678 log2
Δ log2 GLT25D1 mRNA (A549, 30 nM): −1.17 log2
Δ log2 GLUL mRNA (A549, 30 nM): 0.734 log2
Δ log2 GNA13 mRNA (A549, 30 nM): 0.7394 log2
Δ log2 GPR64 mRNA (A549, 30 nM): −1.209 log2
Δ log2 GREM1 mRNA (A549, 30 nM): −1.049 log2
Δ log2 GTF2B mRNA (A549, 30 nM): −0.9795 log2
Δ log2 GTSE1 mRNA (A549, 30 nM): −0.7712 log2
Δ log2 H2AFY mRNA (A549, 30 nM): −0.841 log2
Δ log2 H3F3B mRNA (A549, 30 nM): −1.391 log2
Δ log2 HERC4 mRNA (A549, 30 nM): −1.409 log2
Δ log2 HES1 mRNA (A549, 30 nM): 0.8154 log2
Δ log2 HIPK3 mRNA (A549, 30 nM): 0.8255 log2
Δ log2 HKDC1 mRNA (A549, 30 nM): −0.8911 log2
Δ log2 HLA-DMA mRNA (A549, 30 nM): 1.267 log2
Δ log2 HLA-DMB mRNA (A549, 30 nM): 1.253 log2
Δ log2 HMGA1 mRNA (A549, 30 nM): −0.8703 log2
Δ log2 IER3IP1 mRNA (A549, 30 nM): 1.015 log2
Δ log2 IFI16 mRNA (A549, 30 nM): 0.7014 log2
Δ log2 IFIT1 mRNA (A549, 30 nM): 0.766 log2
Δ log2 IL6R mRNA (A549, 30 nM): 1.8 log2
Δ log2 IL6ST mRNA (A549, 30 nM): 0.7356 log2
Δ log2 IL11 mRNA (A549, 30 nM): −1.98 log2
Δ log2 ILK mRNA (A549, 30 nM): −1.193 log2
Δ log2 INHBC mRNA (A549, 30 nM): 0.988 log2
Δ log2 ITGAV mRNA (A549, 30 nM): −1.397 log2
Δ log2 ITGB4 mRNA (A549, 30 nM): −1.084 log2
Δ log2 IVNS1ABP mRNA (A549, 30 nM): −1.126 log2
Δ log2 JUN mRNA (A549, 30 nM): −1.257 log2
Δ log2 KCNJ2 mRNA (A549, 30 nM): 0.9432 log2
Δ log2 KCNJ16 mRNA (A549, 30 nM): 0.8637 log2
Δ log2 KCNK5 mRNA (A549, 30 nM): 0.9088 log2
Δ log2 KCTD9 mRNA (A549, 30 nM): −1.102 log2
Δ log2 KIAA0152 mRNA (A549, 30 nM): −1.121 log2
Δ log2 KIAA0317 mRNA (A549, 30 nM): −0.9984 log2
Δ log2 KIAA0882 mRNA (A549, 30 nM): 0.7061 log2
Δ log2 KLC2 mRNA (A549, 30 nM): −1.308 log2
Δ log2 KLF4 mRNA (A549, 30 nM): −1.01 log2
Δ log2 LARP6 mRNA (A549, 30 nM): −1.273 log2
